Data taken from patent US11447740B2, “Lactic acid bacterium and use thereof” (Sone Farm Co., Ltd., priority 2017, dated 2022).

Molecular target: T1, hyaluronidase (Bos taurus, UniProt Q2YDK3)
T1 sequence (Q2YDK3 36-553): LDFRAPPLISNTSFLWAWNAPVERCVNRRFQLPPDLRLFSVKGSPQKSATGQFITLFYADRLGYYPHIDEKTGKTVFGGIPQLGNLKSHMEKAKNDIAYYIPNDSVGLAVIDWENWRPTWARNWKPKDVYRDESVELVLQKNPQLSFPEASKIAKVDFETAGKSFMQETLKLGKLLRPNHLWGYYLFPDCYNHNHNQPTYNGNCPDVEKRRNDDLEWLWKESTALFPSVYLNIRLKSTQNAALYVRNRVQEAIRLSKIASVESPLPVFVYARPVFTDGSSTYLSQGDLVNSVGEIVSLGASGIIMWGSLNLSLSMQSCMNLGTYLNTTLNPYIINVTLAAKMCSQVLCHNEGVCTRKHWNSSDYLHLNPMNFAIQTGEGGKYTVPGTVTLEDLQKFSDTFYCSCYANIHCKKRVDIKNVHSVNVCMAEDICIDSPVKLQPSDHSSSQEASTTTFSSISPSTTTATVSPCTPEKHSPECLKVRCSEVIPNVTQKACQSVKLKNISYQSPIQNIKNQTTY
Test: Hyaluronidase activity inhibition
Assay type: biochemical
Conditions: pH 4.0, 37° C.
Description: 5 μL of a hyaluronidase enzyme solution (MP Biomedicals, 4 mg/mL, 100 mM sodium acetate buffer (pH 4.0)) was added to 10 μL of an aqueous solution containing polysaccharides at an optional concentration, which was prepared from the polysaccharide sample containing the neutral polysaccharide fractions and the acidic polysaccharide fractions, the neutral polysaccharide fractions, and the acidic polysaccharide fractions, which were exopolysaccharides produced by the strain IJH-SONE68 and obtained in Example 4. The resultant mixture was incubated at 37° C. for 20 minutes. Thereafter, to the mixture, 10 μL of an enzyme-activating solution (0.5 mg/ml Compound 48/80 (manufactured by MP Biomedicals)), 3.75 mg CaCl2.2H2O, and 100 mM sodium acetate buffer (pH 4.0)) were added, and incubated again at 37° C. for 20 minutes. Subsequently, to the resultant mixture, 25 μL of a sodium hyaluronate solution (Wako Pure Chemical Industries, 0.8 mg/mL, 100 mM sodium acetate buffer (pH 4.0)) was added, and further reacted at 37° C. for 40 minutes. After the reaction, the reaction was terminated by adding 10 μL of 0.4 M NaOH aqueous solution. […] 40 μL of the reaction solution was mixed with 200 μL of p-DMAB solution (described below), the mixture was reacted at 37° C. for 20 minutes, and the absorbance at 585 nm was then measured. […]

CC1(C)[C@@H](O[C@H]2O[C@H](C(=O)[O-])[C@@H](O)[C@H](O)[C@H]2O[C@@H]2O[C@H](C(=O)[O-])[C@@H](O)[C@H](O)[C@H]2O)CC[C@]2(C)[C@H]3C(=O)C=C4[C@@H]5C[C@@](C)(C(=O)O)CC[C@]5(C)CC[C@@]4(C)[C@]3(C)CC[C@@H]12.[K+].[K+] [Dipotassium glycyrrhizinate]
Hyaluronidase activity inhibition IC50: 530 µg/mL
